For orientation: IC50 means the concentration at which inhibition is half-maximal.

This passage reports IC50 results from patent publication US20240218022A1, “ANTI-VISTA MACROCYCLIC PEPTIDES AND COMPOSITIONS” (BRISTOL-MYERS SQUIBB COMPANY, priority 2022, published 2024).

Each structure is given as a SMILES string. Starred links: 1 amine or outer side, 2 acyl side, 3 side chain; linkers in the order of their positions; H or OH if unused. Positions of bridges follow the written chain, without caps; N, C: chain ends. Non-standard residues stand in square brackets, D forms with d. Residues, ends and D or L forms follow the SMILES beside them. ξ: configuration not given here. *: point of attachment. Phe(3-Me) = Cc1cccc(C[C@H](N)C(=O)O)c1; γGlu = O=C(O)[C@H](CCC(=O)[*:2])N[*:1]; 2Nal = N[C@@H](Cc1ccc2ccccc2c1)C(=O)O; βAsp = O=C(O)[C@H](CC(=O)[*:2])N[*:1]; Tic = O=C(O)[C@@H]1Cc2ccccc2CN1; Ahp(2) = CCCCC[C@H](N)C(=O)O; NMeNle = CCCC[C@H](NC)C(=O)O; Tle = CC(C)(C)[C@H](N)C(=O)O; NHexGly = CCCCCCNCC(=O)O; Nle = CCCC[C@H](N)C(=O)O; Orn = NCCC[C@H](N)C(=O)O; Aun = NCCCCCCCCCCC(=O)O; Dap = NC[C@H](N)C(=O)O; ξD = NC(CC(=O)O)C(=O)O; AEEA = NCCOCCOCC(=O)O; ξS = NC(CO)C(=O)O; Allyl = C=CC*

The first assay concerns the target T1, mouse VISTA (mVISTA) (Mus musculus, UniProt Q9D659).
T1 construct: expressed in transfected cells; host or cells: Human embryonic kidney 293T cells
T1 sequence (Q9D659 33-308): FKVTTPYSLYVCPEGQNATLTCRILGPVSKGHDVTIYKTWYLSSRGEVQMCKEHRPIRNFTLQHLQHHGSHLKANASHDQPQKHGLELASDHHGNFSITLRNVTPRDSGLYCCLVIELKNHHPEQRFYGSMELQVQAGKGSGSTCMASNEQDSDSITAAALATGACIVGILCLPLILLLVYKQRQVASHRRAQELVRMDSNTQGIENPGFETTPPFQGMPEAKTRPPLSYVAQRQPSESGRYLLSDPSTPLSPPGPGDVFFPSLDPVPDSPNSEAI
In words: Cell-Based Binding High-Content Assay For mVISTA (HC CBA mVISTA). As to conditions: 293T cells expressing mouse VISTA; competition with biotinylated peptide (2 nM); read-out: HC CBA mVISTA IC50. The method, boiled down: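 293T cells expressing mouse VISTA, with compounds added either after seeding ("no wash") or before seeding and then washed out after 1 h. Biotinylated peptide 2 nM for 30 min at room temperature, then detection with Alexa 647–streptavidin. After fixation with Hoechst stain, plates were high-content imaged; IC50 from four-parameter logistic fit.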
As for `CCCCCCN1CC(=O)N[C@@H](Cc2ccc(O)cc2)C(=O)N[C@@H](CCCCC)C(=O)N[C@@H](CC(N)=O)C(=O)N[C@@H](CCCN)C(=O)N[C@@H](CC(C)C)C(=O)N[C@@H](CCCCC)C(=O)N2CCC[C@H]2C(=O)N[C@@H](C(C)C)C(=O)N[C@@H](CO)C(=O)N[C@H](C(=O)NCC(N)=O)CSCC(=O)N[C@@H](Cc2ccccc2)C(=O)N[C@@H](Cc2ccc(O)cc2)C(=O)N[C@@H](CC(=O)O)C1=O` [Example 1036] ({CH2CO}-FYD[NHexGly]Y[Ahp(2)]N[Orn]L[Ahp(2)]PVSCG-NH2; thioether N-14), the IC50 is 20.1 nM.
Same read-out and setting: in the case of `CCCCCCN1CC(=O)N[C@@H](Cc2ccc(O)cc2)C(=O)N[C@@H](CCCC)C(=O)N[C@@H](CC(=O)O)C(=O)N[C@@H](CCCNC(=N)N)C(=O)N[C@@H](CC(C)C)C(=O)N[C@@H](CCCCC)C(=O)N2CCC[C@H]2C(=O)N[C@@H](C(C)C)C(=O)N[C@@H](Cc2c[nH]c3ccccc23)C(=O)N[C@H](C(=O)NCC(=O)O)CSCC(=O)N[C@@H](Cc2ccccc2)C(=O)N[C@@H](Cc2ccc(O)cc2)C(=O)N[C@@H](CC(=O)O)C1=O` [Example 1067] ({CH2CO}-FYD[NHexGly]Y[Nle]DRL[Ahp(2)]PVWCG-OH; thioether N-14) it was 28.9 nM.

Staying with this assay, now noted: cell-based binding high-content assay, mVISTA; the 15th table; read-out: HC CBA mVISTA IC50.
For `CCCCCCN1CC(=O)N[C@@H](Cc2ccc(O)cc2)C(=O)N[C@@H](CCCC)C(=O)N[C@@H](CC(=O)O)C(=O)N[C@@H](CCCN)C(=O)N(C)[C@@H](CCCC)C(=O)N[C@@H](CCCCC)C(=O)N2CCC[C@H]2C(=O)N[C@@H](C(C)C)C(=O)N[C@@H](CC(=O)O)C(=O)N[C@H](C(=O)N[C@@H](CC(=O)O)C(N)=O)CSCC(=O)N[C@@H](Cc2ccc3ccccc3c2)C(=O)N[C@@H](Cc2c[nH]c3ccccc23)C(=O)N[C@@H](CC(=O)O)C1=O` [compound 1244] ({CH2CO}-[2Nal]WD[NHexGly]Y[Nle]D[Orn][NMeNle][Ahp(2)]PVDCD-NH2; thioether N-14), the IC50 worked out at 13.5 nM.

The assay is the same for the next values; noted with them: cell-based binding high-content assay, mVISTA; the 16th table; read-out: HC CBA mVISTA IC50.
As to `CCCCCCN1CC(=O)N[C@@H](Cc2ccc(O)cc2)C(=O)N[C@@H](CCCCN)C(=O)NCC(=O)N[C@@H](CCCN)C(=O)N[C@@H](CC(C)C)C(=O)N[C@@H](CCCCC)C(=O)N2CCC[C@H]2C(=O)N[C@@H](C(C)C)C(=O)N[C@@H](CO)C(=O)N[C@H](C(=O)NCC(=O)O)CSCC(=O)N[C@@H](Cc2ccc3ccccc3c2)C(=O)N[C@@H](Cc2ccc(O)cc2)C(=O)N[C@@H](CC(=O)O)C1=O` [Ex 1288] ({CH2CO}-[2Nal]YD[NHexGly]YKG[Orn]L[Ahp(2)]PVSCG-OH; thioether N-14), the IC50 amounted to 16.7 nM.

The same assay, now with this note: read-out: HC CBA mVISTA IC50.
`CCCCCCN1CC(=O)N[C@@H](Cc2ccc(O)cc2)C(=O)N[C@@H](CCCC)C(=O)N[C@@H](CC(N)=O)C(=O)N[C@@H](CCCNC(=N)N)C(=O)N(C)[C@@H](CCCC)C(=O)N[C@@H](CCCCC)C(=O)N2CCC[C@H]2C(=O)N[C@@H](C(C)C)C(=O)N[C@@H](CC(=O)O)C(=O)N[C@H](C(=O)NCCOCCOCC(=O)N[C@@H](CC(=O)NCCOCCOCC(=O)NCCCCCCCCCCC(=O)O)C(=O)O)CSCC(=O)N[C@@H](Cc2ccccc2)C(=O)N[C@@H](Cc2c[nH]c3ccccc23)C(=O)N[C@@H](CC(=O)O)C1=O` [Example 2204] ({CH2CO}-FWD[NHexGly]Y[Nle]NR[NMeNle][Ahp(2)]PVDC[AEEA][βAsp][AEEA][Aun]-OH; thioether N-14): the IC50 amounted to 14.9 nM.
As for `CCCCCCN1CC(=O)N[C@@H](Cc2ccc(O)cc2)C(=O)N[C@@H](CCCC)C(=O)N[C@@H](CC(=O)O)C(=O)N[C@@H](CCCNC(=N)N)C(=O)N(C)[C@@H](CCCC)C(=O)N[C@@H](CCCCC)C(=O)N2CCC[C@H]2C(=O)N[C@@H](C(C)(C)C)C(=O)N[C@@H](CO)C(=O)N[C@H](C(=O)NCC(N)=O)CSCC(=O)N[C@@H](Cc2ccccc2)C(=O)N[C@@H](Cc2c[nH]c3ccccc23)C(=O)N[C@@H](CC(=O)O)C1=O` [Example 1395] ({CH2CO}-FWD[NHexGly]Y[Nle]DR[NMeNle][Ahp(2)]P[Tle]SCG-NH2; thioether N-14), the IC50 was 48.6 nM.
Take `CCCCCCN1CC(=O)N[C@@H](Cc2ccc(O)cc2)C(=O)N[C@@H](CCCC)C(=O)N[C@@H](CC(=O)O)C(=O)N[C@@H](CCCN)C(=O)N[C@@H](CC(C)C)C(=O)N[C@@H](CCCCC)C(=O)N2CCC[C@H]2C(=O)N[C@@H](C(C)C)C(=O)N[C@@H](CC(=O)O)C(=O)N[C@H](C(=O)NC(CC(=O)O)C(N)=O)CSCC(=O)N[C@@H](Cc2ccccc2)C(=O)N[C@@H](Cc2cccc(C)c2)C(=O)N[C@@H](CC(=O)O)C1=O` (some centres unmarked) [compound 1326] ({CH2CO}-F[Phe(3-Me)]D[NHexGly]Y[Nle]D[Orn]L[Ahp(2)]PVDC[ξD]-NH2; thioether N-14): the IC50 is 17.5 nM.
Consider `C=CCOc1ccc(C[C@@H]2NC(=O)CSC[C@@H](C(=O)NCC(N)=O)NC(=O)[C@H](CO)NC(=O)[C@H](C(C)(C)C)NC(=O)[C@@H]3CCCN3C(=O)[C@H](CCCCC)NC(=O)[C@H](CCCC)N(C)C(=O)[C@H](CCCNC(=N)N)NC(=O)[C@H](CC(N)=O)NC(=O)[C@H](CC(C)C)NC(=O)[C@H](Cc3ccc(O)cc3)NC(=O)CN(CCCCCC)C(=O)[C@H](CC(=O)O)NC(=O)[C@H](Cc3ccc(O)cc3)NC2=O)cc1` [compound 1223] ({CH2CO}-Y(Allyl)YD[NHexGly]YLNR[NMeNle][Ahp(2)]P[Tle]SCG-NH2; thioether N-14), for which the half-inhibitory concentration (IC50) turned out to be 18.1 nM.
Still for that read-out and setting: under `CCCCCCN1CC(=O)N[C@@H](Cc2ccc(O)cc2)C(=O)N[C@@H](CCCC)C(=O)N[C@@H](CC(N)=O)C(=O)N[C@@H](CCCNC(=N)N)C(=O)N(C)[C@@H](CCCC)C(=O)N[C@@H](CCCCC)C(=O)N2CCC[C@H]2C(=O)N[C@@H](C(C)(C)C)C(=O)N[C@@H](CO)C(=O)N[C@H](C(=O)N[C@@H](CC(=O)NCCOCCOCC(=O)NCCCCCCCCCCC(=O)O)C(=O)O)CSCC(=O)N[C@@H](Cc2ccccc2)C(=O)N[C@@H](Cc2ccc(O)cc2)C(=O)N[C@@H](CC(=O)O)C1=O` [Example 2190] ({CH2CO}-FYD[NHexGly]Y[Nle]NR[NMeNle][Ahp(2)]P[Tle]SC[βAsp][AEEA][Aun]-OH; thioether N-14) stands 24.4 nM.
On the same count and under the same terms, in the case of `CCCCCCN1CC(=O)N[C@@H](Cc2ccc(O)cc2)C(=O)N[C@@H](CC(C)C)C(=O)N[C@@H](CC(N)=O)C(=O)N[C@@H](CCCN)C(=O)N(C)[C@@H](CCCC)C(=O)N[C@@H](CCCCC)C(=O)N2CCC[C@H]2C(=O)N[C@@H](C(C)(C)C)C(=O)N[C@@H](CO)C(=O)N[C@H](C(=O)NCCOCCOCC(=O)N[C@@H](CCC(=O)NCCOCCOCC(=O)NCCCCCCCCCCC(=O)O)C(=O)O)CSCC(=O)N[C@@H](Cc2ccccc2)C(=O)N[C@@H](Cc2ccc(O)cc2)C(=O)N[C@@H](CC(=O)O)C1=O` [compound 2278] ({CH2CO}-FYD[NHexGly]YLN[Orn][NMeNle][Ahp(2)]P[Tle]SC[AEEA][γGlu][AEEA][Aun]-OH; thioether N-14) it was 28.2 nM; in that of `CCCCCCN1CC(=O)N[C@@H](Cc2ccc(O)cc2)C(=O)N[C@@H](CCCC)C(=O)N[C@@H](CC(N)=O)C(=O)N[C@@H](CCCNC(=N)N)C(=O)N(C)[C@@H](CCCC)C(=O)N[C@@H](CCCCC)C(=O)N2CCC[C@H]2C(=O)N[C@@H](C(C)C)C(=O)N[C@@H](CC(=O)O)C(=O)N[C@H](C(=O)N[C@@H](CN)C(=O)N[C@@H](CC(N)=O)C(=O)O)CSCC(=O)N[C@@H](Cc2ccccc2)C(=O)N[C@@H](Cc2c[nH]c3ccccc23)C(=O)N[C@@H](CC(=O)O)C1=O` [compound 1133] ({CH2CO}-FWD[NHexGly]Y[Nle]NR[NMeNle][Ahp(2)]PVDC[Dap]N-OH; thioether N-14), 11.5 nM; in that of `CCCCCCN1CC(=O)N[C@@H](Cc2ccc(O)cc2)C(=O)N[C@@H](CCCC)C(=O)N[C@@H](CC(=O)O)C(=O)N[C@@H](CCCNC(=N)N)C(=O)N(C)[C@@H](CCCC)C(=O)N[C@@H](CCCCC)C(=O)N2CCC[C@H]2C(=O)N[C@@H](C(C)C)C(=O)N[C@@H](CC(=O)O)C(=O)N[C@H](C(=O)NC(CO)C(N)=O)CSCC(=O)N[C@@H](Cc2ccccc2)C(=O)N[C@@H](Cc2cccc(C)c2)C(=O)N[C@@H](CC(=O)O)C1=O` (some centres unmarked) [compound 1347] ({CH2CO}-F[Phe(3-Me)]D[NHexGly]Y[Nle]DR[NMeNle][Ahp(2)]PVDC[ξS]-NH2; thioether N-14), 10.6 nM.
Still for that read-out and setting: under `CCCCCCN1CC(=O)N[C@@H](Cc2ccc(O)cc2)C(=O)N[C@@H](CC(C)C)C(=O)N[C@@H](CC(N)=O)C(=O)N[C@@H](CCCNC(=N)N)C(=O)N[C@@H](CC(C)C)C(=O)N[C@@H](CCCCC)C(=O)N2CCC[C@H]2C(=O)N[C@@H](C(C)(C)C)C(=O)N[C@@H](CC(=O)O)C(=O)N[C@H](C(=O)NCCOCCOCC(=O)N[C@@H](CCC(=O)NCCOCCOCC(=O)NCCCCCCCCCCC(=O)O)C(=O)O)CSCC(=O)N[C@@H](Cc2ccccc2)C(=O)N[C@@H](Cc2c[nH]c3ccccc23)C(=O)N[C@@H](CC(=O)O)C1=O` [compound 2236] ({CH2CO}-FWD[NHexGly]YLNRL[Ahp(2)]P[Tle]DC[AEEA][γGlu][AEEA][Aun]-OH; thioether N-14) stands 23.7 nM; under `CCCCCCN1CC(=O)N[C@@H](Cc2ccc(O)cc2)C(=O)N[C@@H](CCCC)C(=O)N[C@@H](CC(N)=O)C(=O)N[C@@H](CCCNC(=N)N)C(=O)N2Cc3ccccc3C[C@H]2C(=O)N[C@@H](CCCCC)C(=O)N2CCC[C@H]2C(=O)N[C@@H](C(C)C)C(=O)N[C@@H](CO)C(=O)N[C@H](C(=O)NCC(N)=O)CSCC(=O)N[C@@H](Cc2ccccc2)C(=O)N[C@@H](Cc2c[nH]c3ccccc23)C(=O)N[C@@H](CC(=O)O)C1=O` [Example 1415] ({CH2CO}-FWD[NHexGly]Y[Nle]NR[Tic][Ahp(2)]PVSCG-NH2; thioether N-14), 18.1 nM.
